Molecular target: LRRK2 (Mus musculus, UniProt Q5S006)
Experiment: LRRK2 degradation in bone marrow-derived macrophages
Type: cell-based
Text: Bone marrow isolation and macrophage differentiation was modified from (Wells et al., 2004), employing L929 preconditioned medium as the source of M-CSF for differentiation. Briefly, scissors and forceps were used to dissect femurs and tibiae from adult mice, and muscle tissue was carefully removed from bones. Clean femurs and tibiae were placed in a tissue culture dish containing complete media. The ends of each bone were cut with scissors to expose bone marrow. Bone marrow was flushed with a 25-gauge needle attached to a 10 ml syringe containing complete media. Media containing bone marrow was passed through a 70 μm cell strainer and precursor cells were plated on non-tissue culture treated 10 cm bacteriological plates containing 10 ml complete media. This was marked as day 0 of isolation. On day three post-isolation, macrophages were topped up with 5 ml fresh complete media. On day seven post-isolation, macrophages were rinsed once with PBS and incubated with Versene for 5 minutes in a 37° C. 5% CO2 tissue culture incubator. Macrophages were detached with cell scrapers and were centrifuged at 1200 rpm for 5 minutes at room temperature. The Versene was aspirated and the remaining cell pellet was resuspended in complete media. The cell suspension was counted, and cells were seeded for experimental analysis in a 6-well format, in tissue culture treated dishes at a final cell density of one million cells per 6-well.
Culturing and passaging of adherent cell lines were carried out using aseptic technique in CL1 or CL2 (for PBMC isolation) biological safety cabinets. All cells were incubated in a 37° C. incubator with 5% CO2. Cell lines were regularly tested for mycoplasma contamination. For western blot assay, the cells were seeded in 6-well plates. […] The cell pellet was discarded, and supernatant was collected for analysis by quantitative immunoblotting. […] Protein concentrations of cell lysates were determined using the Bradford assay. […]

LRRK2, sequence (Q5S006 whole entry): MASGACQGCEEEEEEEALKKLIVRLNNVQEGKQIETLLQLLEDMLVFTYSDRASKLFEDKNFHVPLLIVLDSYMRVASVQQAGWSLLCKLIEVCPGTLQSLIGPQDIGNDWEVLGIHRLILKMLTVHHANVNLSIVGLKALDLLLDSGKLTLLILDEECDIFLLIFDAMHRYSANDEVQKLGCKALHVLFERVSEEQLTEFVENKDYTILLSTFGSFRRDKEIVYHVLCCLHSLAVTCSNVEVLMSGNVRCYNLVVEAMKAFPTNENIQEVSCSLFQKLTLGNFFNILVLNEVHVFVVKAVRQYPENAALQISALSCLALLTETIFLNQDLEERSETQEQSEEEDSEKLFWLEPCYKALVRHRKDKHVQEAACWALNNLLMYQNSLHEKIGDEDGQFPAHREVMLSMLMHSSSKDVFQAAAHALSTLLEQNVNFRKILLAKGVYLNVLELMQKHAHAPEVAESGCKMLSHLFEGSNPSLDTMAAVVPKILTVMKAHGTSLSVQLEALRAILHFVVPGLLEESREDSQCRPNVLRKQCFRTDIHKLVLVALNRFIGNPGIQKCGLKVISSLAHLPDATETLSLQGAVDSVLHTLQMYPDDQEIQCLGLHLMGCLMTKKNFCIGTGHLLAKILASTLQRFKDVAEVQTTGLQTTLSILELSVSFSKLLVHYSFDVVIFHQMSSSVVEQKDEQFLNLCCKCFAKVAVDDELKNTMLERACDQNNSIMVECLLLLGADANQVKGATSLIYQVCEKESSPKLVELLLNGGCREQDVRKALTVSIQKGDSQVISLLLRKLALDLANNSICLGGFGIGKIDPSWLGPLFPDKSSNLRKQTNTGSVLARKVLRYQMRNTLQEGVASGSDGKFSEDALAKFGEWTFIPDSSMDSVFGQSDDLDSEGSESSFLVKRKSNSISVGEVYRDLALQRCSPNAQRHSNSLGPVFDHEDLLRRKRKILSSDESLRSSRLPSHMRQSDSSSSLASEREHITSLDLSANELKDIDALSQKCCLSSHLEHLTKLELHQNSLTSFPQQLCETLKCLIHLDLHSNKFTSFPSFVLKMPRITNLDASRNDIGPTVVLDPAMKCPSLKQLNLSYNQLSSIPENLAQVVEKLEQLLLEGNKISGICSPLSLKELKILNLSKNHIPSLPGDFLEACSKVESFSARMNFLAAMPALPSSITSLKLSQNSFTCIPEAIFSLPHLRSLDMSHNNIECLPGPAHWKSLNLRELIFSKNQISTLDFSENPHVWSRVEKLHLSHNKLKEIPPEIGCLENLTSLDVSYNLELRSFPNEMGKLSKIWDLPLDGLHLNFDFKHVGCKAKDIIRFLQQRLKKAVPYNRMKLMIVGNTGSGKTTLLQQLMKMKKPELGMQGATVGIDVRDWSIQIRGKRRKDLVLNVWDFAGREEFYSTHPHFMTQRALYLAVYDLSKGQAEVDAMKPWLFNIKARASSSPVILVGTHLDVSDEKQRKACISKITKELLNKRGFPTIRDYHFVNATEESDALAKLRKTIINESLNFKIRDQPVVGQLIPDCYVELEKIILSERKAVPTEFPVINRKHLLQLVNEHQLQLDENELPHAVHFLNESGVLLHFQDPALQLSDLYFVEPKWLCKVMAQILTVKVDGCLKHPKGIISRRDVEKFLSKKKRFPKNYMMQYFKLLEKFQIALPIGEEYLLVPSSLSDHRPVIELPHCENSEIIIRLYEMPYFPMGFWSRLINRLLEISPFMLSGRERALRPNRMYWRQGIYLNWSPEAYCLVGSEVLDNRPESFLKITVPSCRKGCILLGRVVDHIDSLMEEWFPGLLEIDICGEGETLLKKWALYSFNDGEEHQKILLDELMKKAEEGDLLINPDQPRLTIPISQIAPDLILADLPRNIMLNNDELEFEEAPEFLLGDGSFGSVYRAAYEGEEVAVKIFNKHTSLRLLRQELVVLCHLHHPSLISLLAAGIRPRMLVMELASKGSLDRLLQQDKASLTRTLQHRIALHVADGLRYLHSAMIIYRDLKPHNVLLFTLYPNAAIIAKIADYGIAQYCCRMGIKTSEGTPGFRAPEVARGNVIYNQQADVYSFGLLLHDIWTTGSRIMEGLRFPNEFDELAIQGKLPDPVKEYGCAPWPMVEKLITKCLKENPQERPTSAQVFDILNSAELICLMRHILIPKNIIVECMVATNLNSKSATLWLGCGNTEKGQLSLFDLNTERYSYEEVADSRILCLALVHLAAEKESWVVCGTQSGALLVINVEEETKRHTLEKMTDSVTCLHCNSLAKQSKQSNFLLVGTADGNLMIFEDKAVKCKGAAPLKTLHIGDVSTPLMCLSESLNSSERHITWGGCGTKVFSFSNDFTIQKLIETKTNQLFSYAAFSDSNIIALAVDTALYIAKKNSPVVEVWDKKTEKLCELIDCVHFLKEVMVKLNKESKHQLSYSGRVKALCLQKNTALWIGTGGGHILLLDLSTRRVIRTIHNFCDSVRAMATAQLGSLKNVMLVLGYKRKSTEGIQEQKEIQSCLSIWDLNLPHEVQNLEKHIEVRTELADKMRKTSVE

Row | Compound | LRRK2 degradation in macrophages (in words) | LRRK2 protein level reduced in macrophages | DC50 (dose response)
1 | CNc1nc(Nc2ccc(C(=O)N3CCN(C[C@H]4CC[C@H](CSC(C)(C)[C@H](NC(=O)C5(F)CC5)C(=O)N5C[C@@H](O)CC5C(=O)NCc5ccc(-c6scnc6C)cc5)CC4)CC3)cc2OC)ncc1Cl (stereo partly drawn) [Cis-XL01126, (2S,4S)-1-((R)-3-((((1r,4R)-4-((4-(4-((5-chloro-4-(methylamino)pyrimidin-2-yl)amino)-3-methoxybenzoyl)piperazin-1-yl)methyl)cyclohexyl)methyl)thio)-2-(1-fluorocyclopropane-1-carboxamido)-3-methylbutanoyl)-4-hydroxy-N-(4-(4-methylthiazol-5-yl)benzyl)pyrrolidine-2-carboxamide] | cannot degrade LRRK2 | – | –
2 | CNc1nc(Nc2ccc(C(=O)N3CCN(C[C@H]4CC[C@H](CSC(C)(C)[C@H](NC(=O)C5(F)CC5)C(=O)N5C[C@H](O)CC5C(=O)NCc5ccc(-c6scnc6C)cc5)CC4)CC3)cc2OC)ncc1Cl (stereo partly drawn) [XL01126, (2S,4R)-1-((R)-3-((((1R,4R)-4-((4-(4-((5-chloro-4-(methylamino)pyrimidin-2-yl)amino)-3-methoxybenzoyl)piperazin-1-yl)methyl)cyclohexyl)methyl)thio)-2-(1-fluorocyclopropane-1-carboxamido)-3-methylbutanoyl)-4-hydroxy-N-(4-(4-methylthiazol-5-yl)benzyl)pyrrolidine-2-carboxamide] | – | 80-90% | 55 nM
